Several values for one entry are separate records, joined by “and”; a condition that tells them apart may be missing. Equal entries are not always repeated.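 A five-concentration, 48-hour dose response in 96-well plates underlies each endpoint, interpolated linearly between surrounding concentrations. GI50 marks 50% less growth. TGI: total growth inhibition.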
Legend:
Experiment in all cases: NCI tumour cell line growth inhibition, 48 h
ACHN renal = test system: ACHN renal
HCT-15 colon = test system: HCT-15 colon
NCI-H226 lung = test system: NCI-H226 lung
OVCAR-8 ovarian = test system: OVCAR-8 ovarian
SK-MEL-2 melanoma = test system: SK-MEL-2 melanoma
SK-OV-3 ovarian = test system: SK-OV-3 ovarian
T-47D breast = test system: T-47D breast
TK-10 renal = test system: TK-10 renal
U251 CNS = test system: U251 CNS
UACC-257 melanoma = test system: UACC-257 melanoma

SMILES	GI50 (ACHN renal) [µM]	TGI (ACHN renal) [µM]	GI50 (HCT-15 colon) [µM]	TGI (HCT-15 colon)	GI50 (NCI-H226 lung) [µM]	TGI (NCI-H226 lung)	GI50 (OVCAR-8 ovarian)	TGI (OVCAR-8 ovarian)	GI50 (SK-MEL-2 melanoma)	TGI (SK-MEL-2 melanoma)	GI50 (SK-OV-3 ovarian) [µM]	TGI (SK-OV-3 ovarian)	GI50 (T-47D breast) [µM]	TGI (T-47D breast) [µM]	GI50 (TK-10 renal) [µM]	TGI (TK-10 renal)	GI50 (U251 CNS)	TGI (U251 CNS)	GI50 (UACC-257 melanoma) [µM]	TGI (UACC-257 melanoma) [µM]
CS(=O)c1ccc(-c2nc(-c3ccc(F)cc3)c(-c3ccncc3)[nH]2)cc1 (stereo not given)	21.4	> 100	30.2	> 100 µM	24.7	> 73.1 µM	29.6 µM	> 100 µM	23 µM	49.4 µM	18.8	> 82 µM	18	> 100	24.3	> 78.1 µM	38 µM	> 100 µM	16.3	41.6
Cc1c2ncccc2nc2[nH]c3ccc(OCCN(C)C)cc3c12	0.75	7.95	1.33	16.3 µM	5.05	21.5 µM	1.49 µM	16.5 µM	3.03 µM	15.1 µM	2.3	17.5 µM	2.8	> 100	2.42	9.55 µM	2.68 µM	17.3 µM	10.4	28.5
CCOC(=O)N1C/C(=C/c2ccc(OC)cc2)C(=O)/C(=C/c2ccc(OC)cc2)C1	1.96	5.18	1.64	4.91 µM	3.29	18.9 µM	3.49 µM	14.6 µM	13.5 µM	> 56.3 µM	3.63	16.6 µM	3.79	> 100	2.91	8.58 µM	1.74 µM	3.54 µM	2.88	11.4
CC1CCCN(CC(O)CN2CCCc3ccccc32)C1 (stereo not given)		> 100		> 100 µM		> 100 µM		> 100 µM		> 100 µM		> 100 µM		> 100		> 100 µM		> 100 µM		> 100
O=C1C=CN(C2OC(CO)C(O)C2O)C(=O)C1 (stereo not given)		> 2500	54.6	625 µM and > 2500 µM	> 625	> 2500 µM	72.6 µM and 42.7 µM	625 µM and > 2500 µM	115 µM and 1040 µM	625 µM and > 2500 µM	580	625 µM and > 2320 µM		> 1750		> 2500 µM	298 µM and 289 µM	625 µM and > 2500 µM		> 1940
NC(N)=N/N=C/c1cccc(Cl)c1Cl	12.4	25.9	3.25	11.7 µM	13.6	29.2 µM	8.93 µM	25.8 µM	2.22 µM	4.16 µM	7.06	20 µM	1.54	3.64	11.9	24.4 µM	3.4 µM	13.2 µM	6.26	20.6
BrC(Br)(Br)c1cnc2ccccc2n1	1.41	2.84	2.03	6.2 µM	3.91	8.38 µM	1.76 µM	4.07 µM	2.72 µM	7.4 µM	3.38	13.6 µM	1.33	3.31	1.55	3.02 µM	1.3 µM	3.17 µM	2.02	6.48
O=C(O)c1ccc(S(=O)(=O)N=Nc2c(O)[nH]c3ccccc23)cc1		> 100		> 100 µM		> 100 µM		> 100 µM		> 100 µM		> 100 µM		> 100		> 100 µM		> 100 µM		> 100
CC12CCc3ccccc3C1=Nc1ccccc12 (stereo not given)		> 100		> 100 µM		89.8 µM		> 100 µM		> 100 µM		> 100 µM		> 100		> 100 µM		> 100 µM		> 100
COc1cccc2c1cc([N+](=O)[O-])c1c(C(=O)O)cc3c(c12)OCO3	35.2	> 100	29.1	> 100 µM and 38.6 µM	20	48.4 µM and > 78.3 µM		> 100 µM	22.9 µM	52.3 µM and > 100 µM	38.4	> 100 µM	66.3	> 100	8.86	48.1 µM and > 100 µM	22.9 µM	> 100 µM	28.7	> 100
Cc1ccc(C2SCc3nc4ccc(C(=O)c5ccccc5)cc4n32)cc1 (stereo not given)	14.1	> 56.9	3.85	> 42.9 µM	15.3	62.3 µM	15.4 µM	62.6 µM	12.1 µM	47.3 µM	20.5	47.8 µM	14	> 63.5	13.9	35.1 µM	5.09 µM	> 83.7 µM	22	> 61.9
O=C1NC(=O)C2(CCC(O)C2)c2cc[n+]([O-])cc21 (stereo not given)		> 100		> 100 µM		> 100 µM		> 100 µM		> 100 µM		> 100 µM		> 100		> 100 µM		> 100 µM		> 100
C=C1CC2(OC1=O)c1ccccc1C=Cc1ccccc12		9.83		7.77 µM		11.2 µM		11.7 µM		16.5 µM		30.8 µM		4.37		11.1 µM		15.5 µM		10.2
O=C1C(Cl)=C(Nc2cccc(C(F)(F)F)c2)C(=O)N1Cc1ccccc1Cl	4.84	17.1	3.42	20.6 µM	0.0858	3.01 µM	2.71 µM	20.9 µM	4.08 µM	19.8 µM	20.3	39.8 µM	12.8	40.7	14	37.5 µM	2.1 µM	13.8 µM	13.7	29.7
COC(=O)[C@@H](Cc1c[nH]c2ccccc12)NC(=O)/C=C/c1ccccc1	4.08	> 100	3.31	> 100 µM	6.06	> 100 µM	3.6 µM	> 100 µM	6.63 µM	> 100 µM	3.15	> 100 µM	8.41	> 100	17.9	> 100 µM	3.16 µM	41.6 µM	9.03	> 100
